Where two headings read alike, the source gives them in different places.
Columns and labels:
UGT1A10 [1] = target: T1, UGT1A10 (Homo sapiens, UniProt Q9HAW8); experiment: Ki assays / kinetics and inhibition type, UGT1A10 (Example 1); details: read-out: Km (Substrate), Km of the aglycone substrate
T1 sequence (Q9HAW8 26-530): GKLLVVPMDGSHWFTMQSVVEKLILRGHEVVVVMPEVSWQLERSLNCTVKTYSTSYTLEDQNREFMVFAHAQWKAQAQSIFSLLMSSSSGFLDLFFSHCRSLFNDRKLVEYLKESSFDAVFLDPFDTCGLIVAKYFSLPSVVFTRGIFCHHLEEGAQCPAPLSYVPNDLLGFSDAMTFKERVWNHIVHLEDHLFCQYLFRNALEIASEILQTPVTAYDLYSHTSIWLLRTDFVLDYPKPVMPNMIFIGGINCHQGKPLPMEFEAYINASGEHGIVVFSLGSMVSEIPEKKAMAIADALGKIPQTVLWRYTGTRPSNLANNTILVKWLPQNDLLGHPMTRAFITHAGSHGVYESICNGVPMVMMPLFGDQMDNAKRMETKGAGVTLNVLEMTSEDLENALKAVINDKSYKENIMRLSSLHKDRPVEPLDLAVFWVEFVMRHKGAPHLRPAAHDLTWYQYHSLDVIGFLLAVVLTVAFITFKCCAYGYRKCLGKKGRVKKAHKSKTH
Protocol: (§5) Recombinant UGT Isoform Incubations—Recombinant human UGT2B7 was produced in HEK239 cells as previously described (6). UGT1A10 was produced as a His-tagged protein in baculovirus-infected Sf9 insect cells as previously described (7, 8). […] For inhibition assays, recombinant UGT membrane protein was incubated in reaction buffer with substrate, inhibitor, and co-substrate as previously described (6, 9).
(§6) Ki assays—UGT2B7 or 1A10 were incubated with a range of at least four different concentrations of inhibitor using varying concentrations of substrate (Ki(substrate)) with a fixed saturating concentration of cosubstrate or with varying concentrations of co-substrate (Ki(UDP-GlcUA)) and a fixed saturating concentration of substrate (FIG. 4).
(§7) The results of these experiments were analyzed and apparent kinetic and inhibition parameters were determined using Prism 4 software (GraphPad, San Diego, Calif.) and DynaFit (BioKin, Watertown, Mass.). TLC and HPLC Analysis—For inhibition assays using all substrates other than 7-OH-warfarin, aliquots (60 μl) of each incubation were analyzed using thin layer chromatography (TLC) as previously described (3). For inhibition assays using 7-OH-warfarin as a substrate, samples were analyzed using HPLC as described previously (10). Primary standards for the 7-OH-warfarin glucuronide were not available; therefore, product concentrations were estimated using the external standard response for the 7-OH-warfarin substrate.

UGT1A10 [2] = target: T1, UGT1A10; experiment: Ki assays / kinetics and inhibition type, UGT1A10 (Example 2)
Protocol: Recombinant UGT Isoform Incubations—Recombinant human UGT1A10 and it mutants were produced in baculovirus-infected insect cells as previously described (6, 7). Synthesis of inhibitors was described previously (2). For inhibition assays, UGT recombinant membrane protein (5 μg) was incubated in reaction buffer ([…] Tris-HCl (pH 7.4)/5 mM MgCl2/5 mM saccharolactone) and 2% DMSO with substrate, inhibitor and co-substrate, UDP-GlcUA, in a total volume of 30 μl. Substrates were added in DMSO, and controls were run with each assay. No additional detergents or other activators were used in the incubations. Reactions were started by the addition of co-substrate and incubated at 37° C. (90 min for 8-hydroxywarfarin; 30 min for 4-MU; 30 min for E2). […] Reactions were stopped by addition of 40 μl of ethanol, and all incubations were performed in duplicate.
TLC Analysis—For inhibition assays using 4-MU, E2, and 8-OH warfarin as substrates, aliquots (60 μl) of each sample were analyzed using thin layer chromatography (TLC) as described previously (3).
Each sample was centrifuged at 14,000 rpm for 8 min to spin down the protein, and 60 μl of the supernatant was analyzed by HPLC as described previously (8).

UGT2B7 [3] = target: T2, UGT2B7 (Homo sapiens, UniProt P16662); experiment: Screening assay, linoleic acid glucuronidation by UGT2B7; assay type: biochemical; set-up: made in house; host or cells: HEK239 cells (so in the source); details: 250 μM linoleic acid; 0, 50 or 200 μM inhibitor; FIG. 2
T2 sequence (P16662 24-529): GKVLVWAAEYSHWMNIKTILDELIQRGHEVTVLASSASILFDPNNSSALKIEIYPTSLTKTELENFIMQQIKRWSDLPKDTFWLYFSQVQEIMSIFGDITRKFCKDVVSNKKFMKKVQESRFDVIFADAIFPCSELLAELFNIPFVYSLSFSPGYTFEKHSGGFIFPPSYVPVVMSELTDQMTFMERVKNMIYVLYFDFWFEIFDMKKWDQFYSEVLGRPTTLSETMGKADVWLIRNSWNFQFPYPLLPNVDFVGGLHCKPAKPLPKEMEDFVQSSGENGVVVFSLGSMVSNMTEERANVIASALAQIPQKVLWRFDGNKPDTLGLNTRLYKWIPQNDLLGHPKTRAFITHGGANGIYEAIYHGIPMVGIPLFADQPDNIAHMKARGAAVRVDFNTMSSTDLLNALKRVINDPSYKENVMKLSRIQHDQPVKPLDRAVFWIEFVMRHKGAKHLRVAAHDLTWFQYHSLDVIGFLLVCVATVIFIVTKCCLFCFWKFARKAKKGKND
Protocol: (§1) FIG. 2 depicts the effect of PP inhibitors on the glucuronidation by UGT1A6, 1A8, 1A10, and 2B7. Each enzyme was incubated with 250 μM of 4-MU or linoleic acid and 0 μM (black), 50 μM (grey), or 200 μM (white) of each inhibitor. Activities are normalized to percent maximal activity.
(§2) Synthesis of inhibitors was described previously (2).

UGT1A6 [4] = target: T3, UGT1A6 (Homo sapiens, UniProt P19224); experiment: Screening assay, 4-MU glucuronidation by UGT1A6; assay type: biochemical; details: 250 μM 4-MU; 0, 50 or 200 μM inhibitor; FIG. 2 / FIG. 10
T3 sequence (P19224 27-532): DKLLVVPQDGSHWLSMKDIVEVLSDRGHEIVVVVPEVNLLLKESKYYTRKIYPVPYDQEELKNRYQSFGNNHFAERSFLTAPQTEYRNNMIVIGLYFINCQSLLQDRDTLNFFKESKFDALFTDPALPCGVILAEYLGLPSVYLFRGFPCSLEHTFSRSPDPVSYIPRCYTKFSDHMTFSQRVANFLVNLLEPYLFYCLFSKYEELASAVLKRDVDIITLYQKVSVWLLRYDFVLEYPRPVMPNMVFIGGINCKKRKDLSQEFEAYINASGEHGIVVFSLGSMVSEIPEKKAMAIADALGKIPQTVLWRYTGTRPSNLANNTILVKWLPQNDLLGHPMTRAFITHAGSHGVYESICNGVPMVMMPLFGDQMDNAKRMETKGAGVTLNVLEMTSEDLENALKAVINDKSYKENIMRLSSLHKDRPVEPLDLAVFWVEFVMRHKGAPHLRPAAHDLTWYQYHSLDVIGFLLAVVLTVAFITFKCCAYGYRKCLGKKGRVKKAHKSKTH
Protocol: as §1
(§3) FIG. 10 depicts the effect of PP inhibitors on the glucuronidation of 4-MU by UGT1A6, 1A8, and 1A10. Each enzyme was incubated with 250 μM 4-MU and 0, 50, or 200 μM concentrations of each inhibitor. Activities are normalized to percent maximal activity.
as §2
(§4) Recombinant UGT Isoform Incubations—Recombinant human UGT1A10 and it mutants were produced in baculovirus-infected insect cells as previously described (6, 7). Synthesis of inhibitors was described previously (2). For inhibition assays, UGT recombinant membrane protein (5 μg) was incubated in reaction buffer ([…] Tris-HCl (pH 7.4)/5 mM MgCl2/5 mM saccharolactone) and 2% DMSO with substrate, inhibitor and co-substrate, UDP-GlcUA, in a total volume of 30 μl. Substrates were added in DMSO, and controls were run with each assay. No additional detergents or other activators were used in the incubations. Reactions were started by the addition of co-substrate and incubated at 37° C. (90 min for 8-hydroxywarfarin; 30 min for 4-MU; 30 min for E2). […]

UGT1A10 [5] = target: T1, UGT1A10; experiment: Screening assay, 4-MU glucuronidation by UGT1A10; assay type: biochemical; set-up: His; made in house; host or cells: baculovirus-infected Sf9 insect cells; details: 250 μM 4-MU; 0, 50 or 200 μM inhibitor; FIG. 2 / FIG. 10
Protocol: as §1, §3, §2, §4

UGT1A8 = target: T4, UGT1A8 (Homo sapiens, UniProt Q9HAW9); experiment: Screening assay, 4-MU glucuronidation by UGT1A8; assay type: biochemical; details: 250 μM 4-MU; 0, 50 or 200 μM inhibitor; FIG. 2 / FIG. 10
T4 sequence (Q9HAW9 26-530): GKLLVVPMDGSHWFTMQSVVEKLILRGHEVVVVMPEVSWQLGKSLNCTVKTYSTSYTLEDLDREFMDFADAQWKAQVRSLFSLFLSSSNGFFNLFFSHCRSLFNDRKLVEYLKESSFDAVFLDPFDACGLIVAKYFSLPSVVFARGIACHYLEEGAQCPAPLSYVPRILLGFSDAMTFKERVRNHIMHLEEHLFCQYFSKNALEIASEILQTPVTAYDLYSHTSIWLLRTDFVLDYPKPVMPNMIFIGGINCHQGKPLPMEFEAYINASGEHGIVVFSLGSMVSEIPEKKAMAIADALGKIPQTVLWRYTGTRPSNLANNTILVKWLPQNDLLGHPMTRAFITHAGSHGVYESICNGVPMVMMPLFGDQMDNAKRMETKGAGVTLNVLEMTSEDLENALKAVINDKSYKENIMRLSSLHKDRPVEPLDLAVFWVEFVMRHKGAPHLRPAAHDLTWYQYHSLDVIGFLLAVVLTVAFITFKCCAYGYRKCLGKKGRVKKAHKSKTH
Protocol: as §1, §3, §2, §4

UGT1A6 [6] = target: T3, UGT1A6; details: cited from earlier work; for inhibition type toward UDP-GlcUA / inhibition type with 4-MU: 4-MU glucuronidation
UGT2B7 [7] = target: T2, UGT2B7
Protocol: (§8) Recombinant UGT Isoform Incubations—Recombinant human UGT2B7 was produced in HEK239 cells as previously described (6). […] For inhibition assays, recombinant UGT membrane protein was incubated in reaction buffer with substrate, inhibitor, and co-substrate as previously described (6, 9).
(§9) IC50 assays—UGT2B7 or 1A10 were incubated with fixed concentrations of each substrate and co-substrate and increasing concentrations of inhibitor.
as §7

UGT2B7 [8] = target: T2, UGT2B7; experiment: IC50 assays, inhibition of UGT2B7 glucuronidation (Example 1); details: read-out: IC50 (Substrate), linoleic acid ~2 x Km, co-substrate in >5 fold excess
Protocol: as §8, §9, §7

UGT2B7 [9] = target: T2, UGT2B7; experiment: Ki assays / kinetics and inhibition type, UGT2B7 (Example 1); details: human
Protocol: as §5, §6, §7

[10] = substrate: C[C@]12CC[C@@H](O)C[C@@H]1CC[C@@H]1[C@@H]2CC[C@]2(C)C(=O)CC[C@@H]12; experiment: purified protein, by the assay type; details: other: UGT2B7; Km of the aglycone substrate
[11] = substrate: O=[N+]([O-])c1ccc(O)cc1; experiment: purified protein, by the assay type; details: other: UGT2B7; Km of the aglycone substrate
Protocol: as §5, §6, §7

[12] = read-out: Km (Substrate), UGT1A10, Km of the aglycone substrate, Example 2

C[C@]12CC[C@@H]3c4ccc(O)cc4CC[C@H]3[C@@H]1CC[C@@H]2O [E2, reference compound]
Km (UGT1A10 [1]): 46 ± 5 µM | Km (UGT1A10 [2]): 48.3 ± 9 µM

CCCCCCCCCC(=O)NC(COC(=O)NS(=O)(=O)OCC1OC(n2ccc(=O)[nH]c2=O)C2OC(C)(C)OC12)C(O)c1ccccc1 (stereo not drawn) [PP37P]
effect on glucuronidation of linoleic acid by UGT2B7 (UGT2B7 [3]): least effect | effect on glucuronidation of 4-MU by UGT1A6 (UGT1A6 [4]): least effect | effect on glucuronidation of 4-MU by UGT1A10 (UGT1A10 [5]): least effect | effect on glucuronidation of 4-MU by UGT1A8 (UGT1A8): least effect | inhibition type toward UDP-GlcUA (UGT1A6 [6]): competitive | inhibition type with 4-MU (UGT1A6 [6]): competitive | inhibition of 4-methylumbelliferone (4-MU) glucuronidation (UGT1A6 [6]): identified as inhibitors

CCCCCCCCCC(=O)NC(COC(=O)NS(=O)(=O)OCC1OC(n2ccc(=O)[nH]c2=O)C2OC(C)(C)OC12)Cc1ccccc1 (stereo not drawn) [PP50B]
inhibition type toward UDP-GlcUA (UGT1A6 [6]): competitive | inhibition type with 4-MU (UGT1A6 [6]): non-competitive | inhibition of 4-methylumbelliferone (4-MU) glucuronidation (UGT1A6 [6]): identified as inhibitors

CCCCCCCCCC(=O)NC(COC(=O)NS(=O)(=O)OCC1OC(n2ccc(=O)[nH]c2=O)C(O)C1O)C(O)c1ccccc1 (stereo not drawn) [PP37]
inhibition type toward UDP-GlcUA (UGT1A6 [6]): competitive | inhibition type with 4-MU (UGT1A6 [6]): competitive | inhibition of 4-methylumbelliferone (4-MU) glucuronidation (UGT1A6 [6]): identified as inhibitors

CCCCCCCCCC(=O)NC(COC(=O)NCC(=O)NCC1OC(n2ccc(=O)[nH]c2=O)C(O)C1O)C(O)c1ccccc1 (stereo not drawn) [PP36]
IC50 (UGT2B7 [7]): 210 µM | effect on glucuronidation of linoleic acid by UGT2B7 (UGT2B7 [3]): least effect | IC50 (UGT2B7 [8]): 740 µM | effect on glucuronidation of 4-MU by UGT1A6 (UGT1A6 [4]): least effect | effect on glucuronidation of 4-MU by UGT1A10 (UGT1A10 [5]): least effect | effect on glucuronidation of 4-MU by UGT1A8 (UGT1A8): least effect

Cc1cc(=O)oc2cc(O)ccc12 [4-MU, 4-methylumbelliferone, reference compound]
Km (UGT1A10 [1]): 200 ± 20 µM | Km (UGT1A10 [2]; [12]): 91.1 ± 19 µM

CCCCCCCCCC(=O)NC(COC(=O)CS(=O)(=O)OCC1OC(n2ccc(=O)[nH]c2=O)C(O)C1O)Cc1ccccc1 (stereo not drawn) [PP56B]
inhibition type toward UDP-GlcUA (UGT1A6 [6]): competitive | inhibition type with 4-MU (UGT1A6 [6]): competitive | inhibition of 4-methylumbelliferone (4-MU) glucuronidation (UGT1A6 [6]): identified as inhibitors

CC(=O)CC(c1ccccc1)c1c(O)c2cccc(O)c2oc1=O (stereo not drawn) [8-OH Warfarin, 8-hydroxywarfarin, reference compound]
Km (UGT1A10 [1]): 510 ± 70 µM | Km (UGT1A10 [2]; [12]): 515 ± 17 µM

CCCCC/C=C\C/C=C\CCCCCCCC(=O)O [Linoleic Acid, reference compound]
Km (UGT2B7 [9]): 160 ± 20 µM

CC(=O)CC(c1ccccc1)c1c(O)c2ccc(O)cc2oc1=O (stereo not drawn) [7-OH Warfarin, 7-hydroxywarfarin, reference compound]
Km (UGT1A10 [1]): 450 ± 40 µM | Km (UGT1A10 [2]; [12]): 497 ± 61 µM

B1: UGT2B7 (Homo sapiens) (protein)
chain: GKVLVWAAEYSHWMNIKTILDELIQRGHEVTVLASSASILFDPNNSSALKIEIYPTSLTKTELENFIMQQIKRWSDLPKDTFWLYFSQVQEIMSIFGDITRKFCKDVVSNKKFMKKVQESRFDVIFADAIFPCSELLAELFNIPFVYSLSFSPGYTFEKHSGGFIFPPSYVPVVMSELTDQMTFMERVKNMIYVLYFDFWFEIFDMKKWDQFYSEVLGRPTTLSETMGKADVWLIRNSWNFQFPYPLLPNVDFVGGLHCKPAKPLPKEMEDFVQSSGENGVVVFSLGSMVSNMTEERANVIASALAQIPQKVLWRFDGNKPDTLGLNTRLYKWIPQNDLLGHPKTRAFITHGGANGIYEAIYHGIPMVGIPLFADQPDNIAHMKARGAAVRVDFNTMSSTDLLNALKRVINDPSYKENVMKLSRIQHDQPVKPLDRAVFWIEFVMRHKGAKHLRVAAHDLTWFQYHSLDVIGFLLVCVATVIFIVTKCCLFCFWKFARKAKKGKND
Km [10]: 22 ± 2 µM | Km [11]: 760 ± 130 µM

Reference: patent publication US20120184536A1, “COMPOSITIONS COMPRISING SPECIFIC UGT INHIBITORS AND METHODS OF USE THEREOF” (The Board of Trustees of the University of Arkansas, priority 2009, published 2012)
